Where two headings read alike, the source gives them in different places.
Tests used:
C57BL/6J mice = assay: Head twitch response (HTR) in mice; format: in vivo, mouse
Method: All samples were prepared the same day testing was performed. Solids were weighed into small vials and dissolved in USP grade 0.85% saline with addition of 2 molar equivalents of glacial acetic acid. Sonication and gentle heating were applied until complete dissolution. The compounds were subsequently filtered through 0.45 μm filters into a new glass vial. All compounds were administered at a 1 mg/kg subcutaneous dose at a volume of 10 mL/kg of body weight. Volinanserin hydrochloride salt (MDL 100907) was purchased from Toronto Research Chemicals.
All experimental procedures involving animals were approved by an Institutional Animal Care and Use Committee (IACUC) and adhered to principles described in the National Institutes of Health Guide for the Care and Use of Laboratory Animals. The studies were conducted at AAALAC accredited facilities. Animals received regular veterinary care (weekly by institutional veterinarians) including daily health monitoring (by experimenters) of the animals (observing home cage behaviors, nesting, and body weight). All procedures were designed to minimize any stress/distress. Healthy adult male mice C57BL/6J (8-12 weeks, 26-33 g) were purchased from the Jackson Laboratory (Bar Harbor, ME) and housed 5 mice per cage with food and water available ad libitum. Mice were maintained on a 12-h light/dark cycle (lights on 7:00-19:00) and all testing was done in the light cycle. Temperature was kept constant at 22±2° C., and relative humidity was maintained at 50±5%
The head-twitch response evaluation was performed by a trained observer who was blinded to both drug and dose. Mice were moved to the testing room 30 min before the experiment to allow for acclimation. The body weight of each mouse was recorded. Mice were administered either a 1, 3, 10, or 30 mg/kg s.c. dose of compound solution (volume of injection 260-330 μL based on body weight). […] The total number of head-twitches over the 15 minute period were recorded. Five mice were used per dose.
DOI was tested at the doses of 0.3, 1, 3, and 10 mg/kg (s.c., 5 mice per dose) and testing began immediately after administration of the compound. Ariadne was tested at the doses of 1, 3, 10, and 30 mg/kg (s.c., 5 mice per dose) and there was a 10 min interval between treatment and testing.

5-HT7a receptor = 5-HT7a receptor (Homo sapiens, UniProt P34969); assay: 5-HTome G protein activation BRET assay; details: for agonist activity: 5-HTome screen
Method: (§3) All BRET assays were conducted using BRET2 in HEK293T cells (ATCC CRL-11268; mycoplasma-free), which were subcultured in high-glucose DMEM (VWR) supplemented with 10% FBS (Life Technologies).
(§4) Constructs in G protein-dissociation BRET assays were derived from the codon-optimized Tango pcDNA3.1 library (Addgene) with V2tail/TEV/tTA encoding regions deleted to yield “de-Tango” constructs. […] All Gα-Rluc8, Beta, and GFP2-γ constructs were derived from the TRUPATH pcDNA5/FRT/TO library (Addgene).
(§5) Approximately 48 hours before assays, cells were transfected using a reverse transfection method and plated in 1% dFBS at an approximate density of 15,000 cells per well into poly-L-lysine-coated 384-well white assay plates (Grenier Bio-One). For G protein-dissociation assays, cells were transfected in a 1:1:1:1 ratio of receptor: Gα-Rluc8: Beta: GFP2-γ constructs. […] All transfections were prepared in Opti-MEM (Invitrogen) and used a 3:1 ratio of TransIT-2020 (Mirus) uL:ug total DNA.
(§6) On the day of the assay, plates were decanted and 20 uL of drug buffer per well (1×HBSS, 20 mM HEPES, pH 7.4) was added using a Multidrop (ThermoFisher Scientific), and plates were allowed to equilibrate at 37° C. in a humidified incubator before receiving drug stimulation. Drug dilutions of all compounds were performed in McCorvy buffer (1×HBSS, 20 mM HEPES, pH 7.4, supplemented with 0.3% BSA fatty acid free (GoldBio), and 0.03% ascorbic acid). […] Before reading, addition of coelenterazine 400a (5 uM final concentration; Nanolight Technology) was performed by the [sequence]. Immediately after, plates were read at 400 nm Rluc and fluorescent GFP2 emission at 510 nm for BRET2 at 0.8 second per well using a PheraStarFSX (BMB Lab Tech).
(§7) The BRET ratios of 510/400 luminescence were calculated per well and were plotted as a function of drug concentration using Graphpad Prism 5 or 9 (Graphpad Software Inc., San Diego, CA). Data were normalized to % positive control stimulation and analyzed using nonlinear regression “log(agonist) vs. response” to yield Emax and EC50 parameter estimates.

5-HT6 receptor = 5-HT6 receptor (Homo sapiens, UniProt P50406); assay: 5-HTome G protein activation BRET assay; details: for agonist activity: 5-HTome screen
Method: as §3, §4, §5, §6, §7

5-HT2A [1] = target: T1, 5-HT2A (Homo sapiens, UniProt P28223); assay: Radioligand displacement assay; format: binding
Method: Therefore, an orthogonal assay measuring calcium flux was also performed for the 5-HT2 receptors (Klein et al., 2020).

5-HT5a receptor = 5-HT5a receptor (Homo sapiens, UniProt P47898); assay: 5-HTome G protein activation BRET assay; details: for agonist activity: 5-HTome screen
Method: as §3, §4, §5, §6, §7

5-HT2A [2] = target: T1, 5-HT2A; assay: IP1 agonism (IP1 formation assay), Cerep, Eurofins; format: cell-based; parameters: purchased Cerep, Eurofins (contract assay); details: duplicate averages only
Text: (§1) FIGS. 8A-B Comparison of 5-HT2A (a) and 5-HT2B (b) receptor in IP1 formation assay for selected compounds, performed at Cerep, Eurofins.
(§2) IP1 agonism summary for selected compounds (duplicate averages only), performed at Cerep, Eurofins.

5-HT2B = 5-HT2B (Homo sapiens, UniProt P41595); assay: IP1 agonism (IP1 formation assay), Cerep, Eurofins; format: cell-based; parameters: purchased Cerep, Eurofins (contract assay); details: duplicate averages only
Text: as §1, §2

[3] = Pharmacokinetic assessment, plasma and brain; format: in vivo, male C57BL/6 mice; details: for Mean plasma Concentration (ng/mL): LLOQ 5.16 ng/mL; for Mean brain Concentration (ng/g): LLOQ 2.06 ng/mL for brain
Method: PK assessments were performed at Sai Life (Telangana, India) according to the following general procedure. A total twenty-seven male C57BL/6 mice were used in this study with 3 mice per time point. Animals were administered subcutaneously at 10 mg/kg dose of test article. The formulation vehicle used was 0.9% normal saline. Blood samples (approximately 60 μL) were collected under light isoflurane anesthesia (Surgivet®) from retro orbital plexus from a set of three mice at 0.08, 0.25, 0.5, 1, 2, 4, 8, 24 and 48 hr. Immediately after blood collection, plasma was harvested by centrifugation at 4000 rpm, 10 min at […] and samples were stored at −70±10° C. until bioanalysis. Following blood collection, immediately animals were sacrificed followed by cutting abdominal vena-cava and whole body was perfused from heart using 10 mL of normal saline. Brain samples were collected from set of three mice at 0.08, 0.25, 0.5, 1, 2, 4, 8, 24 and 48 hr. After isolation, brain samples were rinsed three times in ice cold normal saline (for 5-10 seconds/rinse using ˜5-10 mL normal saline in disposable petri dish for each rinse) and dried on blotting paper. Brain samples were homogenized using ice-cold phosphate buffer saline (pH−7.4). Total homogenate volume was three times the tissue weight. All homogenates were stored below −70±10° C. until bioanalysis. All samples were processed for analysis by protein precipitation method and analyzed with fit-for-purpose LC-MS/MS method (LLOQ=5.16 ng/mL for plasma and 2.06 ng/mL for brain).

5-HT2A [4] = target: T1, 5-HT2A; assay: G protein (Gq) dissociation BRET assay; format: cell-based; parameters: host or cells: HEK293T (ATCC CRL-11268)
[5] = 5-HTome screen, read-out: Emax, agonist activity
[6] = EC50 (EC50/Gq), Gq dissociation, Gq dissociation BRET
[7] = EC50, agonist activity, 5-HTome screen

Sequence of 5-HT7a receptor (P34969 1-445 isoform P34969-2): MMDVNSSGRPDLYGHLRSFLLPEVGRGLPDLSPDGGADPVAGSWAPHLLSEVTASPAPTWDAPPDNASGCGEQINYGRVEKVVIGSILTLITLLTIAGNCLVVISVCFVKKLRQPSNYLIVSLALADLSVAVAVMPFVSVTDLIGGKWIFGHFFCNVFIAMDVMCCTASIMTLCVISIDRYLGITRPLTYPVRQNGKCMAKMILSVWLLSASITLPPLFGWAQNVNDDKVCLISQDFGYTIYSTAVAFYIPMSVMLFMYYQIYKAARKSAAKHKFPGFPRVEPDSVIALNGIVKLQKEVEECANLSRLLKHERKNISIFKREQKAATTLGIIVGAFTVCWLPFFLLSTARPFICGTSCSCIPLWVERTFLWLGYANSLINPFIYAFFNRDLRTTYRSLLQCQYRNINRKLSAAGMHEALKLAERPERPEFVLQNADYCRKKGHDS
T1 sequence (P28223 whole entry): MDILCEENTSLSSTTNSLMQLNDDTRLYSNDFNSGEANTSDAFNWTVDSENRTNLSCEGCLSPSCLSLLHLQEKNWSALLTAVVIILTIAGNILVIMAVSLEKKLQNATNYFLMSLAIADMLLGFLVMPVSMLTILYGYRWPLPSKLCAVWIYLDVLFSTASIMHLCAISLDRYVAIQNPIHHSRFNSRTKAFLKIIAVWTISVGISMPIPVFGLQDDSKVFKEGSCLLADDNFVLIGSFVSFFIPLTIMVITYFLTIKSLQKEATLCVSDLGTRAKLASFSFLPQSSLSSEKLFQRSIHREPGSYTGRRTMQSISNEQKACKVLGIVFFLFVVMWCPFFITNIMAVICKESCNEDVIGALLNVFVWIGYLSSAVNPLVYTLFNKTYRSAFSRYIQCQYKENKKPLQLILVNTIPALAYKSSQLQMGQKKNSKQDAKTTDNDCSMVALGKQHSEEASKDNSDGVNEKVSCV
Sequence of 5-HT5a receptor (P47898 whole entry): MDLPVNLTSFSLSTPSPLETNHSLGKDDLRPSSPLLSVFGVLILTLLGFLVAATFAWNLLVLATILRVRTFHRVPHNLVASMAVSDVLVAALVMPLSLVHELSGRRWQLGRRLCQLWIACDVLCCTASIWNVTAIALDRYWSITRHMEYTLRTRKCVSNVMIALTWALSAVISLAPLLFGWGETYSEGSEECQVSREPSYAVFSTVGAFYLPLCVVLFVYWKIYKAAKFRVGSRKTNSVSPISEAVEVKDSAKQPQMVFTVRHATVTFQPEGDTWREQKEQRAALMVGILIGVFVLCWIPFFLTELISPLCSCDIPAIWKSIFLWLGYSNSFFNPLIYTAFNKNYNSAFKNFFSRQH
Sequence of 5-HT6 receptor (P50406 whole entry): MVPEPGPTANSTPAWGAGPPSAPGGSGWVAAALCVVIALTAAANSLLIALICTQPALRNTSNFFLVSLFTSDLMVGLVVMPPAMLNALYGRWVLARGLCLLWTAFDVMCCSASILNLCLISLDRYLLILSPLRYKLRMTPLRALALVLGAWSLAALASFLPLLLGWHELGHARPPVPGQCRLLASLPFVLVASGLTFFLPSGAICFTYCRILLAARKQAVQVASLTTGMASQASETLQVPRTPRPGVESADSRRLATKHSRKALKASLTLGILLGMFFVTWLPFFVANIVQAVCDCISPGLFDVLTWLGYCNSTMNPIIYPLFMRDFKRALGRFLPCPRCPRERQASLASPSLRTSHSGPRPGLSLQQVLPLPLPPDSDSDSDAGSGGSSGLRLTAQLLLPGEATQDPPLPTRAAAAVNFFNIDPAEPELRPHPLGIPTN
Sequence of 5-HT2B (P41595 whole entry): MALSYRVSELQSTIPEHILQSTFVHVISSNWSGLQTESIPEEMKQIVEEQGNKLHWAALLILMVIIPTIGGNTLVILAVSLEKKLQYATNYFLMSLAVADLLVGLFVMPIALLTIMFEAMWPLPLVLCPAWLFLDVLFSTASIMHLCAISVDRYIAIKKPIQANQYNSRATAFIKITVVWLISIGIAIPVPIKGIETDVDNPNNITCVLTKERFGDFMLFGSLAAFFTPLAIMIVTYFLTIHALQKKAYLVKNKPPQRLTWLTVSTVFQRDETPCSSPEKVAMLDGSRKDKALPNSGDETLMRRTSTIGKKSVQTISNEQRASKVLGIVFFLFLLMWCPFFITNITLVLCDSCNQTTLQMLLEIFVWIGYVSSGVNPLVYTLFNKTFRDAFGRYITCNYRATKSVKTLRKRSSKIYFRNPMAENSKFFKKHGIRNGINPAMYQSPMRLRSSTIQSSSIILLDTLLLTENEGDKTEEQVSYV

CCC(N)Cc1cc(OC)c(C)cc1OC (racemic) [Compound 32, 1-(2,5-dimethoxy-4-methylphenyl)butan-2-amine]
decrease in HTR count per 15 min compared to racemic DOPR (C57BL/6J mice; s.c.): > 3 fold
dose of maximum (peak) HTR (C57BL/6J mice; s.c.): 10 mg/kg
EC50 (5-HT7a receptor): > 10000 nM
agonist activity (5-HT7a receptor): Little to no agonist activity
EC50 (5-HT6 receptor): > 10000 nM
agonist activity (5-HT6 receptor): Little to no agonist activity
Ki (5-HT2A [1]): 120 nM
EC50 (5-HT5a receptor): > 10000 nM
agonist activity (5-HT5a receptor): Little to no agonist activity
EC50 (5-HT2A [2]; 5-HT2a (IP1 agonism), Table 2): 1.3e-06 M
EC50 (5-HT2A [2]; EC50 (5-HT2A) (M), Table 7, IP1 agonism): 1.8e-06 M
EC50 (5-HT2B; 5-HT2b (IP1 agonism), Table 2): > 3.2e-05 M
EC50 (5-HT2B; EC50 (5-HT2B) (M), Table 7, IP1 agonism): 1.7e-06 M
Mean plasma Concentration (ng/mL) ([3]; SC 10 mg/kg, 8 hr): BLQ
Mean brain Concentration (ng/g) ([3]; SC 10 mg/kg, 24 hr): BLQ
Mean plasma Concentration (ng/mL) ([3]; SC 10 mg/kg, 24 hr): BLQ
Mean brain Concentration (ng/g) ([3]; SC 10 mg/kg, 48 hr): BLQ
Mean plasma Concentration (ng/mL) ([3]; SC 10 mg/kg, 48 hr): BLQ
Kp at 0.083 h ([3]; male, C57BL/6, mouse, brain and plasma, SC 10 mg/kg, 0.083 hr, read-out: Brain/Plasma ratio): 2.43
Kp at 0.25 h ([3]; male, C57BL/6, mouse, brain and plasma, SC 10 mg/kg, 0.25 hr, read-out: Brain/Plasma ratio): 5.93
Kp at 0.5 h ([3]; male, C57BL/6, mouse, brain and plasma, SC 10 mg/kg, 0.5 hr, read-out: Brain/Plasma ratio): 8.47
Kp at 1 h ([3]; male, C57BL/6, mouse, brain and plasma, SC 10 mg/kg, 1 hr, read-out: Brain/Plasma ratio): 10.2
Kp at 2 h ([3]; male, C57BL/6, mouse, brain and plasma, SC 10 mg/kg, 2 hr, read-out: Brain/Plasma ratio): 9.93
Kp at 4 h ([3]; male, C57BL/6, mouse, brain and plasma, SC 10 mg/kg, 4 hr, read-out: Brain/Plasma ratio): 9.01
concentration at 0.083 hr ([3]; male, C57BL/6, mouse, brain, SC 10 mg/kg, 0.083 hr, read-out: Mean brain Concentration): 1630 ng/g
concentration at 0.25 hr ([3]; male, C57BL/6, mouse, brain, SC 10 mg/kg, 0.25 hr, read-out: Mean brain Concentration): 4760 ng/g
concentration at 0.5 hr ([3]; male, C57BL/6, mouse, brain, SC 10 mg/kg, 0.5 hr, read-out: Mean brain Concentration): 5610 ng/g
concentration at 1 hr ([3]; male, C57BL/6, mouse, brain, SC 10 mg/kg, 1 hr, read-out: Mean brain Concentration): 5240 ng/g
concentration at 2 hr ([3]; male, C57BL/6, mouse, brain, SC 10 mg/kg, 2 hr, read-out: Mean brain Concentration): 1710 ng/g
concentration at 4 hr ([3]; male, C57BL/6, mouse, brain, SC 10 mg/kg, 4 hr, read-out: Mean brain Concentration): 368 ng/g
concentration at 8 hr ([3]; male, C57BL/6, mouse, brain, SC 10 mg/kg, 8 hr, read-out: Mean brain Concentration): 16.2 ng/g
concentration at 0.083 hr ([3]; male, C57BL/6, mouse, plasma, SC 10 mg/kg, 0.083 hr, read-out: Mean plasma Concentration): 672 ng/mL
concentration at 0.25 hr ([3]; male, C57BL/6, mouse, plasma, SC 10 mg/kg, 0.25 hr, read-out: Mean plasma Concentration): 802 ng/mL
concentration at 0.5 hr ([3]; male, C57BL/6, mouse, plasma, SC 10 mg/kg, 0.5 hr, read-out: Mean plasma Concentration): 662 ng/mL
concentration at 1 hr ([3]; male, C57BL/6, mouse, plasma, SC 10 mg/kg, 1 hr, read-out: Mean plasma Concentration): 512 ng/mL
concentration at 2 hr ([3]; male, C57BL/6, mouse, plasma, SC 10 mg/kg, 2 hr, read-out: Mean plasma Concentration): 172 ng/mL
concentration at 4 hr ([3]; male, C57BL/6, mouse, plasma, SC 10 mg/kg, 4 hr, read-out: Mean plasma Concentration): 40.9 ng/mL
Cmax ([3]; male, C57BL/6, mouse, SC 10 mg/kg, brain, read-out: Cmax (ng/g), brain): 5610 ng/g
half-life ([3]; male, C57BL/6, mouse, SC 10 mg/kg, brain, read-out: T1/2 (hr), brain (converted)): 0.89 h
Tmax ([3]; male, C57BL/6, mouse, SC 10 mg/kg, brain, read-out: Tmax (hr), brain): 0.5 h
AUC(0-t) ([3]; male, C57BL/6, mouse, SC 10 mg/kg, plasma, read-out: AUClast (hr*ng/mL), plasma): 1180 ng·h/mL
Cmax ([3]; male, C57BL/6, mouse, SC 10 mg/kg, plasma, read-out: Cmax (ng/mL), plasma): 802 ng/mL
half-life ([3]; male, C57BL/6, mouse, SC 10 mg/kg, plasma, read-out: T1/2 (hr), plasma (converted)): 0.84 h
Tmax ([3]; male, C57BL/6, mouse, SC 10 mg/kg, plasma, read-out: Tmax (hr), plasma): 0.25 h
brain penetration ([3]; mouse, in vivo): high brain penetration
Emax (5-HT2A [4]; [5]): > 70%
EC50 (5-HT2A [4]; [6]): 185 nM
EC50 (5-HT2A [4]; [7]): < 1000 nM
signaling potency and efficacy in comparison to DOM (5-HT2A [4]; Gq, G11 and β-arrestin2 pathways coupled to 5-HT2A): lower signaling potency and efficacy

CC[C@@H](N)Cc1cc(OC)c(C)cc1OC [(R)-Ariadne]
HTR in presence of MDL100,907 (volinanserin), 5-HT2A antagonist (C57BL/6J mice; mouse, in vivo): completely inhibited
dose of maximum (peak) HTR (C57BL/6J mice; s.c.): 10 mg/kg
agonist activity (5-HT7a receptor): Little to no agonist activity
agonist activity (5-HT6 receptor): Little to no agonist activity
Ki (5-HT2A [1]): 53 nM
agonist activity (5-HT5a receptor): Little to no agonist activity
Emax (5-HT2A [4]; [5]): > 70%
EC50 (5-HT2A [4]; [6]): 149 nM
EC50 (5-HT2A [4]; [7]): < 1000 nM
Emax (5-HT2A [4]; Gq dissociation BRET, normalized to 5-HT, read-out: Emax (Emax/Gq) relative to 5-HT): 75%

Reference: patent US20260021061A1, “ARIADNE AND ANALOGS FOR THE TREATMENT OF NEUROLOGICAL AND NEUROMUSCLAR DISORDERS” (priority 2022, published 2026)
